Molecules are shown by their SMILES. Values joined by “and” are separate entries in the source; they are usually repeats but may differ in a detail not shown here. Equal values may be shown once. Inconclusive results and toxic doses are left out.

The experiment deals with BDF1 mice, P815 leukemia ip, survival T/C. Description: NCI In Vivo Anticancer Drug Screen. Data for tumor model P815 Mast Cell Leukemia (Ascitic) (intraperitoneal) in B6D2F1 (BDF1) mice. As to conditions: higher = longer survival. How it is done:
The antitumor activity of compounds was measured in mice bearing transplantable tumors. Survival or tumor size were measured and the results are expressed as the measurement made in the treated group (T) divided by the measurement made in the vehicle treated control group (C). The tumor model used in this assay is P815 Mast Cell Leukemia (Ascitic) (intraperitoneal) in B6D2F1 (BDF1) mice

Where [1] appears, read: endpoint: survival time, mean or median, dose: 12.0 mg/kg/injection, schedule: Q01DX010 (ip), vehicle: saline.
[2] abbreviates: endpoint: survival time, mean or median, dose: 18.0 mg/kg/injection, schedule: Q01DX010 (ip), vehicle: saline.
The mark [3] stands for this setting: endpoint: survival time, mean or median, dose: 250.0 mg/kg/injection, schedule: Q01DX010 (ip), vehicle: saline.
[4] abbreviates: endpoint: survival time, mean or median, dose: 62.5 mg/kg/injection, schedule: Q01DX015 (ip), vehicle: carboxymethylcellulose (CMC).
The mark [5] stands for this setting: endpoint: survival time, mean or median, dose: 8.0 mg/kg/injection, schedule: Q01DX010 (ip), vehicle: saline.
Setting [6] is: endpoint: survival time, mean or median, dose: 1.0 mg/kg/injection, schedule: Q01DX015 (ip), vehicle: carboxymethylcellulose (CMC).
Setting [7] is: endpoint: survival time, mean or median, dose: 12.5 mg/kg/injection, schedule: Q01DX010 (ip), vehicle: saline.
Setting [8] is: endpoint: survival time, mean or median, dose: 25.0 mg/kg/injection, schedule: Q01DX010 (ip), vehicle: saline.
[9] abbreviates: endpoint: survival time, mean or median, dose: 50.0 mg/kg/injection, schedule: Q01DX010 (ip), vehicle: saline.
The mark [10] stands for this setting: endpoint: survival time, mean or median, dose: 5.0 mg/kg/injection, schedule: Q01DX010 (ip), vehicle: saline.
Where [11] appears, read: endpoint: survival time, mean or median, dose: 10.0 mg/kg/injection, schedule: Q01DX010 (ip), vehicle: saline.
Where [12] appears, read: endpoint: survival time, mean or median, dose: 20.0 mg/kg/injection, schedule: Q01DX010 (ip), vehicle: saline.
[13] abbreviates: endpoint: survival time, mean or median, dose: 40.0 mg/kg/injection, schedule: Q01DX010 (ip), vehicle: saline.
[14] abbreviates: endpoint: survival time, mean or median, dose: 80.0 mg/kg/injection, schedule: Q01DX010 (ip), vehicle: saline.
Where [15] appears, read: endpoint: survival time, mean or median, dose: 31.3 mg/kg/injection, schedule: Q01DX010 (ip), vehicle: saline.
Where [16] appears, read: endpoint: survival time, mean or median, dose: 62.5 mg/kg/injection, schedule: Q01DX010 (ip), vehicle: saline.
Setting [17] is: endpoint: survival time, mean or median, dose: 125.0 mg/kg/injection, schedule: Q01DX010 (ip), vehicle: saline.
Where [18] appears, read: endpoint: survival time, mean or median, dose: 100.0 mg/kg/injection, schedule: Q01DX010 (ip), vehicle: saline.

`CC1CN=C(c2ccc(NC(=O)c3cccc(C(=O)Nc4ccc(C5=NCC(C)N5)cc4)c3)cc2)N1` (stereo unspecified): the T/C is 112 % of control under setting [1]; 104 % of control under setting [2]; 112 % of control (endpoint: survival time, mean or median, dose: 27.0 mg/kg/injection, schedule: Q01DX010 (ip), vehicle: saline).

Regarding `Nc1ncnc2[nH]ncc12`, the T/C reads like this: (endpoint: survival time, mean or median, dose: 1.5 mg/kg/injection, schedule: Q01DX010 (ip), vehicle: saline) 100 % of control; (endpoint: survival time, mean or median, dose: 3.0 mg/kg/injection, schedule: Q01DX010 (ip), vehicle: saline) 100 % of control; (endpoint: survival time, mean or median, dose: 6.0 mg/kg/injection, schedule: Q01DX010 (ip), vehicle: saline) 100 % of control and 104 % of control; under setting [1], 100 % of control and 109 % of control.

With `O=C(Nc1ccc(C2=NCCN2)cc1)c1cc(C(=O)Nc2ccc(C3=NCCN3)cc2)cc([N+](=O)[O-])c1`, the T/C was 91 % of control (endpoint: survival time, mean or median, dose: 167.0 mg/kg/injection, schedule: Q01DX010 (ip), vehicle: saline); 95 % of control under setting [3]; 91 % of control (endpoint: survival time, mean or median, dose: 375.0 mg/kg/injection, schedule: Q01DX010 (ip), vehicle: saline).

On to `CC(Cl)CN(Cc1cc(O)c(CN(CC(C)Cl)CC(C)Cl)cc1O)CC(C)Cl` (stereo unspecified), for which the T/C reads like this: under setting [4], 114 % of control; (endpoint: survival time, mean or median, dose: 125.0 mg/kg/injection, schedule: Q01DX015 (ip), vehicle: carboxymethylcellulose (CMC)) 99 % of control; (endpoint: survival time, mean or median, dose: 250.0 mg/kg/injection, schedule: Q01DX015 (ip), vehicle: carboxymethylcellulose (CMC)) 122 % of control; (endpoint: survival time, mean or median, dose: 500.0 mg/kg/injection, schedule: Q01DX015 (ip), vehicle: carboxymethylcellulose (CMC)) 124 % of control.

Consider `Nc1nc(SCc2ccccc2)c2[nH]cnc2n1`, for which the T/C is 100 % of control and 105 % of control under setting [5]; 100 % of control and 111 % of control (endpoint: survival time, mean or median, dose: 16.0 mg/kg/injection, schedule: Q01DX010 (ip), vehicle: saline); 100 % of control and 122 % of control (endpoint: survival time, mean or median, dose: 64.0 mg/kg/injection, schedule: Q01DX010 (ip), vehicle: saline).

In the case of `Cc1nc(CON)cs1`, the T/C was 90 % of control (endpoint: median survival time, dose: 50.0 mg/kg/injection, schedule: Q01DX015 (ip), vehicle: saline) and 94 % of control (endpoint: median survival time, dose: 100.0 mg/kg/injection, schedule: Q01DX015 (ip), vehicle: saline).

As to `N[C@@H](Cc1ccc(N(CCCl)CCCl)cc1)C(=O)O`, the T/C runs as follows: under setting [6], 231 % of control; (endpoint: survival time, mean or median, dose: 2.0 mg/kg/injection, schedule: Q01DX015 (ip), vehicle: carboxymethylcellulose (CMC)) 257 % of control; (endpoint: survival time, mean or median, dose: 4.0 mg/kg/injection, schedule: Q01DX015 (ip), vehicle: carboxymethylcellulose (CMC)) 182 % of control and 195 % of control; (endpoint: survival time, mean or median, dose: 8.0 mg/kg/injection, schedule: Q01DX015 (ip), vehicle: carboxymethylcellulose (CMC)) 103 % of control.

With `COS(C)(=O)=O`, the T/C is, setting by setting: under setting [7], 100 % of control; under setting [8], 100 % of control; under setting [9], 100 % of control.

Regarding `Nc1nc(=S)c2[nH]cnc2[nH]1`, the T/C (endpoint: survival time, mean or median, dose: 2.5 mg/kg/injection, schedule: Q01DX010 (ip), vehicle: saline) is 95 % of control; the T/C under setting [10] was 122 % of control; the T/C under setting [11] was 90 % of control and 118 % of control.

For `O=C(Nc1ccc(C2=NCCN2)cc1)c1cc(Cl)cc(C(=O)Nc2ccc(C3=NCCN3)cc2)c1`, the T/C (endpoint: survival time, mean or median, dose: 140.0 mg/kg/injection, schedule: Q01DX010 (ip), vehicle: saline) was 91 % of control; the T/C (endpoint: survival time, mean or median, dose: 210.0 mg/kg/injection, schedule: Q01DX010 (ip), vehicle: saline) is 95 % of control; the T/C (endpoint: survival time, mean or median, dose: 315.0 mg/kg/injection, schedule: Q01DX010 (ip), vehicle: saline) is 86 % of control; the T/C (endpoint: survival time, mean or median, dose: 473.0 mg/kg/injection, schedule: Q01DX010 (ip), vehicle: saline) was 91 % of control.

Regarding `OCC1OC(n2cnc3c(=S)nc[nH]c32)C(O)C1O` (stereo unspecified), the T/C reads like this: under setting [12], 104 % of control and 116 % of control; under setting [13], 91 % of control and 108 % of control; under setting [14], 95 % of control and 116 % of control.

As to `CN(C)CC(=O)c1ccc(O)c(O)c1`, the T/C runs as follows: (endpoint: survival time, mean or median, dose: 200.0 mg/kg/injection, schedule: Q01DX010 (ip), vehicle: saline) 120 % of control; (endpoint: survival time, mean or median, dose: 300.0 mg/kg/injection, schedule: Q01DX010 (ip), vehicle: saline) 100 % of control; (endpoint: survival time, mean or median, dose: 450.0 mg/kg/injection, schedule: Q01DX010 (ip), vehicle: saline) 95 % of control.

On to `CCCNC(=NC)c1ccc(NC(=O)c2ccc(C(=O)Nc3ccc(C(=NC)NCCC)cc3)cc2)cc1`, for which the T/C reads like this: (endpoint: survival time, mean or median, dose: 5.2 mg/kg/injection, schedule: Q01DX010 (ip), vehicle: saline) 121 % of control; under setting [5], 121 % of control; under setting [1], 121 % of control; under setting [2], 100 % of control.

For the compound `CCCSc1ncnc2nc[nH]c12`, the T/C reads like this: under setting [15], 100 % of control and 111 % of control; under setting [16], 111 % of control; under setting [17], 111 % of control and 122 % of control.

Consider `CS(=O)(=O)OCCC(=O)N1CCN(C(=O)CCOS(C)(=O)=O)CC1`, for which the T/C under setting [7] was 105 % of control; the T/C under setting [8] is 222 % of control; the T/C under setting [9] was 211 % of control and 285 % of control; the T/C under setting [18] is 183 % of control and 160 % of control.

As to `NOCc1ccsn1`, the T/C reads like this: (endpoint: median survival time, dose: 15.0 mg/kg/injection, schedule: Q01DX010 (ip), vehicle: saline sonified) 100 % of control; (endpoint: median survival time, dose: 30.0 mg/kg/injection, schedule: Q01DX010 (ip), vehicle: saline sonified) 100 % of control; (endpoint: median survival time, dose: 60.0 mg/kg/injection, schedule: Q01DX010 (ip), vehicle: saline sonified) 93 % of control.

For the compound `CC(=O)NC1=C(N2CC2)C(=O)C(NC(C)=O)=C(N2CC2)C1=O`, the T/C was 203 % of control (endpoint: survival time, mean or median, dose: 0.5 mg/kg/injection, schedule: Q01DX015 (ip), vehicle: carboxymethylcellulose (CMC)) and 103 % of control under setting [6].

With `O=C1CCC(N2C(=O)c3ccccc3C2=O)C(=O)N1` (stereo unspecified), the T/C is 104 % of control under setting [15], 100 % of control under setting [16], 96 % of control under setting [17] and 96 % of control under setting [3].

With `O=C1C(NC(=O)C2CCCCC2)=C(N2CC2)C(=O)C(NC(=O)C2CCCCC2)=C1N1CC1`, the T/C is 88 % of control under setting [9] and 94 % of control under setting [18].

With `Cn1c(N)nc2nc[nH]c2c1=S`, the T/C is 106 % of control under setting [11]; 100 % of control and 111 % of control under setting [12]; 100 % of control under setting [13]; 100 % of control (endpoint: survival time, mean or median, dose: 160.0 mg/kg/injection, schedule: Q01DX010 (ip), vehicle: saline).

Consider `CS(=O)(=O)OCCCl`, for which the T/C (endpoint: survival time, mean or median, dose: 18.8 mg/kg/injection, schedule: Q01DX010 (ip), vehicle: saline) is 100 % of control and 105 % of control; the T/C (endpoint: survival time, mean or median, dose: 37.5 mg/kg/injection, schedule: Q01DX010 (ip), vehicle: saline) was 100 % of control; the T/C (endpoint: survival time, mean or median, dose: 75.0 mg/kg/injection, schedule: Q01DX010 (ip), vehicle: saline) was 100 % of control and 111 % of control.

Consider `NC(Cc1ccc(N(CCCl)CCCl)cc1)C(=O)O` (stereo unspecified), for which the T/C is 120 % of control (endpoint: survival time, mean or median, dose: 4.0 mg/kg/injection, schedule: Q01DX010 (ip), vehicle: other) and 100 % of control (endpoint: survival time, mean or median, dose: 8.0 mg/kg/injection, schedule: Q01DX010 (ip), vehicle: other).

Take `O=C(O)c1[nH]c(=O)[nH]c(=O)c1F`: the T/C (endpoint: survival time, mean or median, dose: 13.0 mg/kg/injection, schedule: Q01DX015 (ip), vehicle: carboxymethylcellulose (CMC)) is 86 % of control.

Regarding `COc1ccc(CSc2ncnc3nc[nH]c23)cc1`, the T/C under setting [4] is 91 % of control.

Regarding `CCOC(=O)c1c[nH]c2ccc(N(CCCl)CCCl)cc12`, the T/C is, setting by setting: under setting [10], 100 % of control; under setting [11], 100 % of control; under setting [12], 100 % of control; under setting [13], 105 % of control; under setting [14], 112 % of control.

Turning to `N=C(N)SCc1c2ccccc2c(CSC(=N)N)c2ccccc12`, the T/C under setting [10] was 162 % of control; the T/C under setting [11] was 175 % of control and 200 % of control; the T/C under setting [12] is 150 % of control; the T/C under setting [13] is 150 % of control.
